This note sets out measurements from article PMC3968008 (PLoS ONE, 2014).

In brackets after ≈: the same amount, converted by molar mass. Entries after “also recorded” stand apart in the source; their conditions may differ. Ends that are not written are not given here.

For one data set, the system named is E. coli (ATCC25922). Briefly: microbe, parasite or virus in culture. In kind it is cell-based, Escherichia coli. The conditions noted are these: for MIC E. coli (ATCC25922): ATCC25922, 48 h; for MIC: Escherichia coli, ATCC25922, broth microdilution, 37°C, 24 or 48 hours, individual data from two independent experiments.
Data set [1] relates to P. aeruginosa (ATCC27853). Briefly: MIC, broth microdilution. In kind it is cell-based, Pseudomonas aeruginosa. Details: MIC P. aeruginosa (ATCC27853): unit not given beside the values. As to conditions: 24 or 48 hours, individual data from two independent experiments. In general terms: In broth dilution the organism is exposed to a series of concentrations in liquid medium.

Another data set deals with S. aureus (ATCC29213). Briefly: microbe, parasite or virus in culture. In kind it is cell-based, Staphylococcus aureus. The conditions noted are these: broth microdilution, 37°C, 24 or 48 hours, individual data from two independent experiments; for MIC: Staphylococcus aureus, ATCC29213.
The conditions of data set [2]: pooled rat serum, 37°C, 10 and 60 minutes, MALDI-TOF MS; major metabolites 20 aa, 18 aa, 17 aa and 12 aa.
Description: Rat sera were collected from rats. […] Samples were collected before incubation, after 10 minutes of incubation and after 60 minutes of incubation and were precipitated by the addition of an equivalent amount of acetonitrile containing 0.1% trifluoroacetate. The samples were centrifuged, and the supernatants were purified using ZipTip m-C18 (Millipore, MA). Sample solution was mixed with matrix solution (α-cyano 4-hydroxy cinnamic acid).
The test system of the next data set is Micrococcus luteus. As to the kind of experiment: microbe, parasite or virus in culture. In kind it is cell-based. As to conditions: Micrococcus luteus; aerobe; broth microdilution; individual data from two independent experiments.
A further data set deals with Bacillus subtilis. Briefly: microbe, parasite or virus in culture. In kind it is cell-based. The conditions noted are these: Bacillus subtilis; aerobe; broth microdilution; individual data from two independent experiments.
For another data set, the system named is Salmonella Enteritidis. Briefly: microbe, parasite or virus in culture. As to conditions: Salmonella enterica, ENTERITIDIS; aerobe; broth microdilution; individual data from two independent experiments. In kind it is cell-based.
For another data set, the system named is Salmonella Typhimurium. As to the kind of experiment: microbe, parasite or virus in culture. In kind it is cell-based. The conditions noted are these: Salmonella enterica, TYPHIMURIUM; aerobe; broth microdilution; individual data from two independent experiments.
The next data set has as its system Acinetobacter baumannii. In kind it is cell-based. As to conditions: aerobe; broth microdilution; individual data from two independent experiments.
In a further data set the test system is Bacteroides fragilis. Briefly: microbe, parasite or virus in culture. In kind it is cell-based. The conditions noted are these: Bacteroides fragilis; anaerobe; broth microdilution; individual data from two independent experiments.
Another data set has as its system Fusobacterium nucleatum. As to the kind of experiment: MIC, broth microdilution. As to conditions: anaerobe, individual data from two independent experiments. The class given is cell-based.
Another data set concerns fungi. As to the kind of experiment: Antimicrobial spectrum, fungi. The class given is cell-based.
The test system of the next data set is Penicillium glabrum. As to the kind of experiment: MIC, broth microdilution. In kind it is cell-based. The conditions noted are these: fungus, individual data from two independent experiments.
Another data set has as its system Fusarium solani. Briefly: microbe, parasite or virus in culture. The class given is cell-based. As to conditions: Fusarium solani; fungus; broth microdilution; individual data from two independent experiments.
Another data set relates to Alternaria alternata. As to the kind of experiment: microbe, parasite or virus in culture. The class given is cell-based. As to conditions: Alternaria alternata; fungus; broth microdilution; individual data from two independent experiments.
Data set [3] concerns Trichophyton mentagrophytes. As to the kind of experiment: microbe, parasite or virus in culture. As to conditions: Trichophyton mentagrophytes; fungus; broth microdilution; individual data from two independent experiments. In kind it is cell-based.
Description: (§1) Antimicrobial activity of the peptides was evaluated against Escherichia coli JCM 5491, Pseudomonas aeruginosa JCM 6119, Staphylococcus aureus JCM2874, Salmonella Typhimurium JCM1652, Acinetobacter baumannii JCM6841, Bacteroides fragilis JCM11019, Fusobacterium nucleatum JCM11025, Penicillium glabrum JCM22534, Fusarium solani JCM11383, Alternaria alternata JCM5800 (RIKEN, A research institution for basic and applied science in Japan), Micrococcus luteus NBRC13867, Bacillus subtilis NBRC3134, Propionibacterium acnes NBRC107605, Trichophyton mentagrophytes NBRC6124, Trichophyton rubrum NBRC9185, Candida krusei NBRC1395 (National Institute of Technology and Evaluation, Tokyo, Japan), Salmonella Enteritidis IID604 (The Institute of Medical Science, The University of Tokyo, Tokyo, Japan). Additionally, the clinical isolates (Drug-sensitive/resistant Pseudomonas aeruginosa and Staphylococcus aureus, Osaka University Hospital) and multidrug-resistant Acinetobacter baumannii (ATCC BAA-1605) were used. […] Serial two-fold dilutions of peptide were added to 0.1 ml of medium containing each type of bacteria and fungi at concentrations of 0.4×10^4 – 5×10^4 CFU/ml. The plates were incubated at 37°C with vigorous shaking for 24 or 48 hours. The MICs were determined as the lowest concentrations of peptide that inhibited visible bacterial growth.
A further data set concerns Trichophyton rubrum. Briefly: microbe, parasite or virus in culture. The conditions noted are these: Trichophyton rubrum; fungus; broth microdilution; individual data from two independent experiments. In kind it is cell-based.
Another data set relates to Candida krusei. As to the kind of experiment: microbe, parasite or virus in culture. In kind it is cell-based. As to conditions: Pichia kudriavzevii; fungus; broth microdilution; individual data from two independent experiments.
The next data set has as its system bacteria. As to the kind of experiment: Antimicrobial spectrum, bacteria. The class given is cell-based.
In the next data set the test system is NHDFs. As to the kind of experiment: NHDFs proliferation, WST-1 assay. The class given is cell-based, human. As to conditions: preincubation with Akt inhibitor IV 1 μM (1 hour) or rapamycin 1 nM (2 hours), then SR-0379. Here is the method:
HUVECs, NHDFs and NHEKs were purchased from Kurabo (Osaka, Japan). The endothelial cells were maintained in HuMedia EB2 and the fibroblasts were maintained in Medium 106S. Both media were supplemented with 1% fetal bovine serum (FBS) as described previously. The epidermal keratinocytes were maintained in HuMedia KB2. Cells were incubated at 37°C in a humidified atmosphere of 95% air/5% CO2 with exchange of medium every 2 days. HUVECs were cultured in 96-well plates at a density of 10,000 cells/well and incubated for 48 hours at 37°C with AG30/5C or FGF2 (recombinant human FGF basic, R&D systems, Inc., Minneapolis, MN). The proliferation of HUVECs, NHDFs and NHEKs was analyzed using a WST-1 assay (Dojindo, Kumamoto, Japan). Tubule formation assay has recently been developed in which endothelial cells are co-cultured with fibroblasts. […] The tube-like structures were measured in terms of total tube length with the software (Angiogenesis Image Analyzer, Kurabo, Osaka Japan). Cell migration was evaluated using an Oris cell migration assay kit (Platypus Technologies, LLC., Madison, WI) according to the manufacturer's instructions. […] The number of cells that migrated into the detection zone was measured using a plate reader. […] At each time point, the lattices were digitally photographed from a fixed distance, and their areas were calculated using image analysis software. […]
In general terms: Tetrazolium assays rely on reduction of a dye to a coloured formazan, in cell work by metabolically active cells.

A further data set concerns the target T1, P2X7 (Homo sapiens, UniProt Q99572).
T1 construct: we also examined the contribution of P2X7 receptors to the effect of SR-0379; endogenous in cells; probably NHDFs (human dermal fibroblasts, Kurabo)
Briefly: Contribution of P2X7 receptors to the effect of SR-0379. The class given is cell-based. As to conditions: data not shown.

Data set [4] relates to interleukin-8 (IL-8) mRNA in NHDFs. Briefly: IL-8 mRNA expression, real-time RT-PCR. The class given is cell-based, human. The conditions noted are these: Wortmannin 100 nM, SR-0379 10 μg/ml. Here is the method:
Expression of the human IL-8 mRNA was measured using real-time reverse transcription polymerase chain reaction (RT-PCR). Total RNA was extracted from the tissue samples using ISOGEN reagent (NIPPON GENE, Toyama, Japan). Complementary DNA (cDNA) was synthesized using the Thermo Script RT-PCR System (Invitrogen, Carlsbad, CA). Relative gene-copy numbers for IL-8 mRNA and glyceraldehyde-3-phosphate dehydrogenase (GAPDH) were determined by real-time RT-PCR using TaqMan Gene Expression Assays (IL-8: Hs00174103_m1; GAPDH: 4352934). Absolute gene-copy numbers were normalized to GAPDH using a standard curve.
For orientation: Real-time PCR tracks product formation cycle by cycle.

The nature of another data set: pooled rat serum. The conditions noted are these: 37°C, up to 60 minutes.
For data set [5] the following is noted: peptide 500 μg/ml, 37°C, 3 or 10 minutes, acetonitrile/0.1% trifluoroacetate precipitation, HPLC, N = 2 (Fig. 1E). On the procedure:
In vitro stability studies were performed by incubating the peptide with rat or human serum. Human sera (Pool of donors, 5 men and 5 women) were commercially purchased from KAC (Kyoto, Japan), which has been permitted only for experiment. We don't use the human biological specimens without the documented informed consent. Rat sera were collected from rats. The peptide (500 μg/ml) was added to serum (300 μL) and incubated at 37°C. A part of samples (90 μL) were taken, and the proteins were precipitated with acetonitrile containing 0.1% trifluoroacetate (200 μL). The precipitate was separated by centrifugation. The supernatants were analyzed by high-performance liquid chromatography (HPLC).

T1 sequence (Q99572 whole entry): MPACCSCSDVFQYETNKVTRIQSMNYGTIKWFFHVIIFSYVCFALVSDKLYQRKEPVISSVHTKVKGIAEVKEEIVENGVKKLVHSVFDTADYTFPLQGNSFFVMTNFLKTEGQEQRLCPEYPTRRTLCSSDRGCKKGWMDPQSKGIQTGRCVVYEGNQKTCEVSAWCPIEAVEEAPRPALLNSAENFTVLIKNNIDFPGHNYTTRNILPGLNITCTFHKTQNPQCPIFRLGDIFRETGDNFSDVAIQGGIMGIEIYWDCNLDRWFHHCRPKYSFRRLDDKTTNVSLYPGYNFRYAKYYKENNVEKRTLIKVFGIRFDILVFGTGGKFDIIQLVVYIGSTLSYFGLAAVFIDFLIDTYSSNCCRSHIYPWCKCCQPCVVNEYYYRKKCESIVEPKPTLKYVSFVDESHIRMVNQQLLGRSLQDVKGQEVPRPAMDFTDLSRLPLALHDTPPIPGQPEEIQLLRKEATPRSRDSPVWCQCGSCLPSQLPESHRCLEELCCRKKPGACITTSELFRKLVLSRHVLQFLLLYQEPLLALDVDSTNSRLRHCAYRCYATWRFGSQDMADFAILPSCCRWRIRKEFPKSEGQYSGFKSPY
Description for Acinetobacter baumannii: (§2) Antimicrobial activity of the peptides was evaluated against Escherichia coli JCM 5491, Pseudomonas aeruginosa JCM 6119, Staphylococcus aureus JCM2874, Salmonella Typhimurium JCM1652, Acinetobacter baumannii JCM6841, Bacteroides fragilis JCM11019, Fusobacterium nucleatum JCM11025, Penicillium glabrum JCM22534, Fusarium solani JCM11383, Alternaria alternata JCM5800 (RIKEN, A research institution for basic and applied science in Japan), Micrococcus luteus NBRC13867, Bacillus subtilis NBRC3134, Propionibacterium acnes NBRC107605, Trichophyton mentagrophytes NBRC6124, Trichophyton rubrum NBRC9185, Candida krusei NBRC1395 (National Institute of Technology and Evaluation, Tokyo, Japan), Salmonella Enteritidis IID604 (The Institute of Medical Science, The University of Tokyo, Tokyo, Japan). […] Serial two-fold dilutions of peptide were added to 0.1 ml of medium containing each type of bacteria and fungi at concentrations of 0.4×10^4 – 5×10^4 CFU/ml. The plates were incubated at 37°C with vigorous shaking for 24 or 48 hours. The MICs were determined as the lowest concentrations of peptide that inhibited visible bacterial growth.
Description for Alternaria alternata: as §1
Description for Bacillus subtilis: as §2
Description for Bacteroides fragilis: as §1
Description for Candida krusei: as §1
Description for E. coli (ATCC25922): as §1
Description for Fusarium solani: as §1
Description for Fusobacterium nucleatum: as §2
Description for Micrococcus luteus: as §1
Description for Penicillium glabrum: as §2
Description for S. aureus (ATCC29213): as §1
Description for Salmonella Enteritidis: as §2
Description for Salmonella Typhimurium: as §2
Description for Trichophyton rubrum: as §1
Description for bacteria: as §2
Description for fungi: as §2

Take “MLKLIFLHRLKRMRKRLKRKLRLWHRKRYK [AG30/5C]”: the “MIC E. coli (ATCC25922)” value against E. coli (ATCC25922) is 32 µg/mL. In addition, in data set [1] (37°C), the “MIC P. aeruginosa (ATCC27853)” value is 16/32. For the same molecule, the “MIC S. aureus (ATCC29213)” value with S. aureus (ATCC29213) is recorded as 16/32. Besides, the “Metabolic stability, cleavage in rat serum” value in data set [2] is “cleaved by endopeptidases and exopeptidase at multiple sites”.

As to `O=C(N[C@H](CO)[C@H](O)c1ccc([N+](=O)[O-])cc1)C(Cl)Cl` [Chloramphenicol, reference compound], the MIC stood at 1 µg/mL (≈ 3.09 µM) against Micrococcus luteus; 4 µg/mL (≈ 12.4 µM) against Bacillus subtilis; 4 µg/mL (≈ 12.4 µM) with Salmonella Enteritidis; 4 µg/mL (≈ 12.4 µM) against Salmonella Typhimurium; 1 µg/mL (≈ 3.09 µM) with Bacteroides fragilis; 0.25 µg/mL (≈ 0.774 µM) in the data set with Fusobacterium nucleatum. Further, the “MIC Acinetobacter baumannii” value in the data set on Acinetobacter baumannii was 16/32. Besides, the “Inhibitory activity against fungi” value in the data set with fungi is “failed to exhibit an inhibitory activity”.

`C[C@@H]1[C@H](O)[C@@H](C)/C=C/C=C/C=C/C=C/C=C/C=C/C=C/[C@H](O[C@@H]2O[C@H](C)[C@@H](O)[C@H](N)[C@@H]2O)C[C@@H]2O[C@](O)(C[C@@H](O)C[C@@H](O)[C@H](O)CC[C@@H](O)C[C@@H](O)CC(=O)O[C@H]1C)C[C@H](O)[C@H]2C(=O)O` [Amphotericin B, reference compound]: the MIC was 0.125 µg/mL (≈ 0.135 µM) against Penicillium glabrum; 1 µg/mL (≈ 1.08 µM) in the data set on Fusarium solani; 1 µg/mL (≈ 1.08 µM) against Alternaria alternata; 0.125 µg/mL (≈ 0.135 µM) in data set [3]; 0.125 µg/mL (≈ 0.135 µM) in the data set on Trichophyton rubrum; 2 µg/mL (≈ 2.16 µM) against Candida krusei. Also, the “Inhibitory activity against bacteria” value in the data set on bacteria is given as “failed to exhibit an inhibitory activity”.

Consider `CC[n+]1c(/C=C/N(C)c2ccccc2)n(-c2ccccc2)c2ccc(-c3nc4ccccc4s3)cc21.[I-]` [Akt inhibitor IV], for which the “Effect on SR-0379-induced cell proliferation” value with NHDFs is on record as “attenuated”.

Take `C[C@@H](O)[C@H]1C(=O)N2C(C(=O)O)=C(S[C@@H]3CN[C@H](C(=O)N(C)C)C3)[C@H](C)[C@H]12` [Meropenem, reference compound]: the MIC with E. coli (ATCC25922) was in the range of 0.008 to 0.06 µg/mL (≈ 0.0209 to 0.156 µM); in [1] (Pseudomonas aeruginosa, ATCC27853, 37°C), 0.25 to 1 µg/mL (≈ 0.652 to 2.61 µM); against S. aureus (ATCC29213), 0.03 to 0.12 µg/mL (≈ 0.0782 to 0.313 µM).

On to `CO[C@H]1C[C@@H]2CC[C@@H](C)[C@@](O)(O2)C(=O)C(=O)N2CCCC[C@H]2C(=O)O[C@H]([C@H](C)C[C@@H]2CC[C@@H](O)[C@H](OC)C2)CC(=O)[C@H](C)/C=C(\C)[C@@H](O)[C@@H](OC)C(=O)[C@H](C)C[C@H](C)/C=C/C=C/C=C/1C` [Rapamycin], for which the “Effect on SR-0379-induced cell proliferation” value in the data set with NHDFs is on record as “attenuated”.

For the molecule `CCOc1ccc(Nc2ccc(/C(=C3C=C/C(=[N+](/CC)Cc4cccc(S(=O)(=O)[O-])c4)C=C/3C)c3ccc(N(CC)Cc4cccc(S(=O)(=O)O)c4)cc3C)cc2)cc1` [Brilliant Blue G], the “Inhibition of the effects of SR-0379 by P2X7 antagonist” value on P2X7 is “failed to inhibit”.

As for `NC[C@H]1O[C@H](O[C@H]2[C@H](O)[C@@H](O[C@H]3O[C@H](CO)[C@@H](O)[C@H](N)[C@H]3O)[C@H](N)C[C@@H]2N)[C@H](N)C[C@@H]1O` [Tobramycin, reference compound], the MIC with E. coli (ATCC25922) is 0.25 to 1 µg/mL (≈ 0.535 to 2.14 µM); against S. aureus (ATCC29213), 0.12 to 1 µg/mL (≈ 0.257 to 2.14 µM).

On to `COC[C@H]1OC(=O)c2coc3c2[C@@]1(C)C1=C(C3=O)[C@@H]2CCC(=O)[C@@]2(C)C[C@H]1OC(C)=O` [Wortmannin], for which the “Effect of pretreatment on SR-0379-induced IL-8 mRNA expression” value in [4] is given as “attenuated”.

For the molecule `Cc1onc(-c2ccccc2)c1C(=O)N[C@@H]1C(=O)N2[C@@H]1SC(C)(C)[C@@H]2C(=O)O` [Oxacillin], in the data set on S. aureus (ATCC29213), the MIC was 0.12 to 0.5 µg/mL (≈ 0.299 to 1.25 µM).

For MLKLIFLHRLKRMRKRLKRKLRFWHRKRYK, in “pooled rat serum”, the fragment found entry is “MLKLIFLHRL KRMRKRLKRK (SR-0007), major; also recorded: MLKLIFLHRL KRMRKRLK, major; also recorded: MLKLIFLHRL KRMRKRL, major; also recorded: LHRL KRMRKRLK, major”.

With MLKLIFLHRLKRMRKRLKRK [SR-0007], in the data set on E. coli (ATCC25922), the “MIC E. coli (ATCC25922)” value was found to be 64 µg/mL. Besides, in data set [5] (human serum (pool of 5 men and 5 women) 300 μL), the “Stability in human serum” value is “rapidly degraded”. Besides, the “Stability in rat serum” value in data set [5] (rat serum 300 μL) is “rapidly degraded”.
